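The compound was tested at five concentrations on cells cultured in 96-well plates, with a 48-hour exposure period. GI50: concentration for 50% inhibition of growth. TGI: concentration producing complete growth inhibition.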
How the values were obtained:
Test in all cases: DTP human tumour cell line panel, 48 h
[1] = tested on: 786-0 renal
[2] = tested on: A498 renal
[3] = tested on: A549 NSCLC
[4] = tested on: ACHN renal
[5] = tested on: BT-549 breast
[6] = tested on: CAKI-1 renal
[7] = tested on: COLO 205 colon
[8] = tested on: DU-145 prostate
[9] = tested on: EKVX NSCLC
[10] = tested on: HCC-2998 colon
[11] = tested on: HCT-116 colon
[12] = tested on: HCT-15 colon
[13] = tested on: HL-60(TB) leukemia
[14] = tested on: HOP-62 NSCLC
[15] = tested on: HOP-92 NSCLC
[16] = tested on: HS 578T breast
[17] = tested on: HT29 colon
[18] = tested on: IGROV1 ovarian
[19] = tested on: KM12 colon
[20] = tested on: LOX IMVI melanoma
[21] = tested on: M14 melanoma
[22] = tested on: MALME-3M melanoma
[23] = tested on: MCF7 breast
[24] = tested on: MDA-MB-231 breast
[25] = tested on: MDA-MB-435
[26] = tested on: MOLT-4 leukemia
[27] = tested on: NCI-H226 lung
[28] = tested on: NCI-H23 lung
[29] = tested on: NCI-H460 lung
[30] = tested on: NCI-H522 lung
[31] = tested on: NCI/ADR-RES ovarian
[32] = tested on: OVCAR-3 ovarian
[33] = tested on: OVCAR-4 ovarian
[34] = tested on: OVCAR-5 ovarian
[35] = tested on: OVCAR-8 ovarian
[36] = tested on: PC-3 prostate
[37] = tested on: RXF 393 renal
[38] = tested on: SF-268 CNS
[39] = tested on: SF-295 CNS
[40] = tested on: SF-539 CNS
[41] = tested on: SK-MEL-2 melanoma
[42] = tested on: SK-MEL-28 melanoma
[43] = tested on: SK-MEL-5 melanoma
[44] = tested on: SK-OV-3 ovarian
[45] = tested on: SN12C renal
[46] = tested on: SNB-19 CNS
[47] = tested on: SNB-75 CNS
[48] = tested on: SR leukemia
[49] = tested on: SW-620 colon
[50] = tested on: T-47D breast
[51] = tested on: TK-10 renal
[52] = tested on: U251 CNS
[53] = tested on: UACC-257 melanoma
[54] = tested on: UACC-62 melanoma
[55] = tested on: UO-31 renal

Nc1ccn(C2O[C@H](CO)[C@@H](O)[C@@H]2O)c(=O)n1 (stereo partly drawn)
TGI [1]: > 100 µM | TGI [2]: > 100 µM | GI50 [3]: 24.6 µM | TGI [3]: > 100 µM | GI50 [4]: 42.9 µM | TGI [4]: > 100 µM | TGI [5]: > 100 µM | TGI [6]: > 100 µM | GI50 [7]: 51.8 µM | TGI [7]: > 100 µM | TGI [8]: > 100 µM | TGI [9]: > 100 µM | GI50 [10]: 68.5 µM | TGI [10]: > 100 µM | GI50 [11]: 24.2 µM | TGI [11]: > 100 µM | TGI [12]: > 100 µM | GI50 [13]: > 100 µM | TGI [13]: > 100 µM | GI50 [14]: 64.3 µM | TGI [14]: > 100 µM | GI50 [15]: 33.8 µM | TGI [15]: > 100 µM | TGI [16]: > 100 µM | TGI [17]: > 100 µM | TGI [18]: > 100 µM | TGI [19]: > 100 µM | TGI [20]: > 100 µM | GI50 [21]: 22.3 µM | TGI [21]: > 100 µM | GI50 [22]: 79.6 µM | TGI [22]: > 100 µM | GI50 [23]: 27.1 µM | TGI [23]: > 100 µM | TGI [24]: > 100 µM | TGI [25]: > 100 µM | GI50 [26]: 16.1 µM | TGI [26]: > 100 µM | TGI [27]: > 100 µM | GI50 [28]: 30.4 µM | TGI [28]: > 100 µM | GI50 [29]: 23 µM | TGI [29]: > 100 µM | GI50 [30]: 26.5 µM | TGI [30]: > 100 µM | TGI [31]: > 100 µM | TGI [32]: > 100 µM | TGI [33]: > 100 µM | TGI [34]: > 100 µM | GI50 [35]: 53.8 µM | TGI [35]: > 100 µM | TGI [36]: > 100 µM | TGI [37]: > 100 µM | TGI [38]: > 100 µM | TGI [39]: > 100 µM | TGI [40]: > 100 µM | TGI [41]: > 100 µM | TGI [42]: > 100 µM | TGI [43]: > 100 µM | TGI [44]: > 100 µM | TGI [45]: > 100 µM | TGI [46]: > 100 µM | GI50 [47]: 41.5 µM | TGI [47]: > 100 µM | GI50 [48]: > 100 µM | TGI [48]: > 100 µM | TGI [49]: > 100 µM | TGI [50]: > 100 µM | TGI [51]: > 100 µM | TGI [52]: > 100 µM | TGI [53]: > 100 µM | TGI [54]: > 100 µM | TGI [55]: > 100 µM
